Source: US20120121753A1, “COMPOSITIONS AND METHODS FOR PREVENTION AND TREATMENT OF OBESITY AND OBESITY RELATED METABOLIC SYNDROME” (JINIS BIOPHARMACEUTICALS CO., priority 2009, published 2012)

What was measured:
[1] = tested on: gastric and pancreatic lipase; conditions: background statement; cited from earlier work
Male SD rats = experiment: Effect of FARM3 on diet-induced obesity (4 weeks, obese rats); format: in vivo, rat; conditions: 4 weeks of treatment
From the text: The 3 month old male SD rats were given high-fat feed (described above) for 8 weeks to develop diet-induced obesity with average body weight of 425 g. The rats were randomly divided into groups (n=14 per group) and received fermented yogurt or drug under continued high-fat diet conditions: 3179 group (high fat diet with yogurt fermented by L. acidophilus KCTC 3179 strain), FARM3 group (high fat diet with yogurt fermented by FARM3 mutant), Orlistat™ (high fat diet with Xenical™ in an amount of 200 mg/kg diet).
The 3 month old male SD rats were given high-fat feed for 8 weeks to develop diet-induced obesity with average body weight of 425 g. The diet-induced obese rats were administered daily yogurt fermented with wild-type Lactobacillus 3179 (∘, high fat diet with yogurt fermented by L. acidophilus KCTC3179 strain), yogurt fermented with FARM3 ([…], high fat diet with yogurt fermented by FARM3) or Orlistat™ (Δ, high fat diet with Xenical™ 200 mg/kg diet) under continued high-fat diet condition for 4 weeks.

SMILES: CCCCCCCCCCC[C@@H](C[C@@H]1OC(=O)[C@H]1CCCCCC)OC(=O)[C@H](CC(C)C)NC=O [Orlistat™, Orlistat]
- reduction of dietary fat absorption [1]: approximately 30%
- oily feces (Male SD rats): oily feces
